Measurements taken from patent US20160009686A1, “VEGFR3 INHIBITORS” (CANCER THERAPEUTICS CRC PTY LIMITED, priority 2012, published 2016).

Tests used:
[1] = biological target: VEGFR3 (Homo sapiens, UniProt P35916); experiment: VEGFR3 Phospho ELISA Assay; type: cell-based; settings: HMVEC-dLyAD cells, treated for 1 hour, VEGFC stimulated; phospho VEGFR3 relative to Total VEGFR3
Method: Adult human dermal lymphatic microvascular endothelial cells (HMVEC-dLyAD) (Cat# CC-2810, Lonza) were seeded into clear-bottom, TC treated 12 well plates (Cat #665180, Greiner Bio-One) in EGM-2MV (Cat# CC-3202, Lonza) at 180,000 cells/well (volume 1 mL), and the plates incubated at 37° C. and 5% CO2 for 6 hours.
96 well Maxisorp immuno plates (Cat #439454, Nunc) were coated with 100 μL of Total VEGFR3 capture antibody (Part #841888, Human Total VEGFR3/FLT4 ELISA Kit, Cat # DYC3491, R&D Systems), or Phospho VEGFR3 Capture antibody (Part #841885, Human Phospho VEGFR3/FLT4 ELISA Kit, Cat# DYC2724, R&D Systems). The plates were covered and incubated at room temperature overnight.
The coating antibody was flicked out and the plates washed three times with Wash Buffer (Phosphate buffered saline (137 mM NaCl, 2.7 nM KCl, 8.1 nM Na2HPO4, 1.5 mL KH2PO4, pH 7.2-7.4), 0.05% Tween 20). 300 μL of blocking buffer (5% v/v Tween 20, 5% w/v sucrose in PBS) was then added to wells and plate incubated for 2 hours at room temperature. Blocking solution is flicked out and plates washed three times and tapped dry.
Compound dilution series were prepared in EBM-2 (Cat # CC-3156, Lonza)+0.1% BSA (Cat# A8412, Sigma) with constant 0.1% DMSO concentration. 439 μL of sample or vehicle control was added to the cell monolayers. Cells are treated for 1 hour at 37° C. and 5% CO2. 250 ng/mL Recombinant human VEGFC (Cat #2179-VC, R & D Systems) added to wells and plates incubated for an additional 10 minutes at 37° C. and 5% CO2.
(§1) The media and compounds were removed and the cell monolayer washed once in Dulbecco's Phosphate Buffered Saline (Cat #21600-044, Invitrogen). 130 μL of Lysis buffer added to wells and cell lysate harvested and transferred to tubes and stored on ice. Complete lysis buffer was prepared by adding 10 μL Protease Inhibitor Cocktail (Cat # P8340, Sigma-Aldrich), 10 μL PMSF (Phenylmethanesulfonyl fluoride, Cat # P7626, Sigma-Aldrich, prepared as 500 mM DMSO stock) per 1 mL of Phosphosafe™ Extraction Reagent (Cat #71296, Merck).
The harvested samples were then diluted 1:2 in IC Diluent #18 (5% Tween 20/PBS) and 100 μL transferred to the Total and Phospho VEGFR3 coated, blocked and washed 96 well plates and incubated for 2 hours at room temperature. The plates were then washed three times in wash buffer as described above and tapped dry. For detection of Total VEGFR3 100 μL of Detection antibody (Total VEGFR3 Detection Antibody Part#841888 in Total VEGFR3 kit) diluted in IC Diluent #1 (1% w/v BSA (Cat # A7906, Sigma-Aldrich)/PBS) was added to wells and the plate incubated for 2 hours at room temperature. The plate was then washed three times in wash buffer and tapped dry. 100 μL of streptavidin-HPR diluted in IC diluent #1 Streptavidin-HRP, Part #890803 in Total VEGFR3 kit) was added to wells and incubated at room temperature for 20 minutes followed by washing as described above. 100 μL Substrate solution (3,3′,5,5′-Tetramethylbenzidine (TMB) Liquid Substrate System for ELISA, Cat # T0440, Sigma-Aldrich) was added and the plate incubated for 20 minutes in the dark at room temperature followed by the addition of 50 μL stop solution (2 M H2SO4).
Total VEGFR3 levels were quantified using a Multiskan Ascent plate reader and Ascent software fitted with 450 nm filter.
For detection of Phospho VEGFR3, 100 μL of Detection antibody (Anti-Phospho-Tyrosine-HRP Detection Antibody, Part #841403 in Phospho VEGFR3 kit) was diluted in IC Diluent #1 (1% w/v BSA/PBS), added to the wells and the plate incubated for 2 hours at room temperature. The plate was then washed three times in wash buffer as described above and tapped dry. 100 μL Substrate solution (3,3′,5,5′-Tetramethylbenzidine (TMB) Liquid Substrate System for ELISA, Cat # T0440, Sigma-Aldrich) was added and the plate incubated for 20 minutes in the dark at room temperature followed by the addition of 50 μL stop solution (2 M H2SO4).

[2] = biological target: T1, VEGFR2 (Homo sapiens, UniProt P35968); experiment: VEGFR2 Phospho ELISA Assay; type: cell-based; settings: HUVEC, treated for 1 hour, VEGF stimulated; phospho VEGFR2 relative to Total VEGFR2
T1 construct: host or cells: HUVEC
T1 sequence (P35968 20-1356): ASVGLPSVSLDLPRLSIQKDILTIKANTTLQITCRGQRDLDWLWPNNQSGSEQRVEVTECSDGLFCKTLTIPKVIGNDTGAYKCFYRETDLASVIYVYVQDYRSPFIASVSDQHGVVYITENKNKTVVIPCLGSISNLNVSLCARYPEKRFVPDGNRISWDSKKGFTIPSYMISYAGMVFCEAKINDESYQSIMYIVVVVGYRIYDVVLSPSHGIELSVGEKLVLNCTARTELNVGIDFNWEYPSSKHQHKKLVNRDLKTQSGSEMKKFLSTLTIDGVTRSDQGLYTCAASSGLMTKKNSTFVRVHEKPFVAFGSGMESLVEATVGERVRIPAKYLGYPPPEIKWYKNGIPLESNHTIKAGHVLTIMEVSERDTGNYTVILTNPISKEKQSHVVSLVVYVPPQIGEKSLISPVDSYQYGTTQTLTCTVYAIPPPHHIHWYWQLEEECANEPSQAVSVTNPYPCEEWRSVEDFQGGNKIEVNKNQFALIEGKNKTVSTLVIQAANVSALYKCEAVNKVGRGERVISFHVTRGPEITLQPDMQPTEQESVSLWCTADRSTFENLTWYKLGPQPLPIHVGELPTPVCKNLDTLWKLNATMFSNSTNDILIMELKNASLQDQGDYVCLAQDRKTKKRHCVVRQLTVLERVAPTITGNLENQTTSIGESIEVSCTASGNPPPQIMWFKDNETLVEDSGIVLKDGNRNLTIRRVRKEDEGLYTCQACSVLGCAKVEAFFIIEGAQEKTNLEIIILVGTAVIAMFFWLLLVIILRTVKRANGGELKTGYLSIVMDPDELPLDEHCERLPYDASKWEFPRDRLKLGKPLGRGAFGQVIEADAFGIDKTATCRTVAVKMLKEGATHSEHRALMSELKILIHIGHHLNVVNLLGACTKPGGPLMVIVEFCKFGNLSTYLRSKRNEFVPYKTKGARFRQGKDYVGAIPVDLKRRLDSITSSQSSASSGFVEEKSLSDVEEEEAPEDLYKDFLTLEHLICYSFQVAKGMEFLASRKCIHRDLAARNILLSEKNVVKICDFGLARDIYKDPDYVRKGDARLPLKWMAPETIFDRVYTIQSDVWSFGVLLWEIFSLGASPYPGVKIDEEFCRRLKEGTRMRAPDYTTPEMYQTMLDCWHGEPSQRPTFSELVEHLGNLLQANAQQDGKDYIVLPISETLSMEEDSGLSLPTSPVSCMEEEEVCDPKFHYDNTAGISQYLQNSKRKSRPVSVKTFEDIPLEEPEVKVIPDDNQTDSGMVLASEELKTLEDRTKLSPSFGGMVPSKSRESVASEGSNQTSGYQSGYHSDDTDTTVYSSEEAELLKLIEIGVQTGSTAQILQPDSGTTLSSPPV
Method: Adult human umbilical vein endothelial cells (HUVEC) (Cat# CC-2519, Lonza) were seeded into clear-bottom, TC treated 12 well plates (Cat #665180, Greiner Bio-One) in EGM-2 (Cat# CC-3162, Lonza) at 180,000 cells/well (volume 1 mL), and the plates incubated at 37° C. and 5% CO2 for 6 hours.
96 well Maxisorp immuno plates (Cat #439454, Nunc) were coated with 100 μL of Total VEGFR2 capture antibody (Part #841434, Human Total VEGFR2/FLT4 ELISA Kit, Cat # DYC1780, R&D Systems), or Phospho VEGFR2 Capture antibody (Part #841419, Human Phospho VEGFR2/FLT4 ELISA Kit, Cat# DYC1766, R&D Systems). The plates were covered and incubated at room temperature overnight.
The coating antibody was flicked out and the plates washed three times with Wash Buffer (Phosphate buffered saline (137 mM NaCl, 2.7 nM KCl, 8.1 nM Na2HPO4, 1.5 mL KH2PO4, pH 7.2-7.4), 0.05% Tween 20). 300 μL of Blocking buffer (1% v/v BSA (Cat# A8412, Sigma) in PBS) was then added to wells and plate incubated for 2 hours at room temperature. Blocking solution is flicked out and plates washed three times and tapped dry.
Compound dilution series were prepared in EBM-2 (Cat # CC-3156, Lonza)+0.1% BSA (Cat# A8412, Sigma) with constant 0.1% DMSO concentration. 427.5 μL of sample or vehicle control was added to the cell monolayers. Cells are treated for 1 hour at 37° C. and 5% CO2. 50 ng/mL Recombinant human VEGF (Cat #293-VC, R & D Systems) added to wells and plates incubated for an additional 10 minutes at 37° C. and 5% CO2.
as §1
The plates were then washed three times in wash buffer as described above and tapped dry.
For detection of Total VEGFR2 100 μL of Detection antibody (Total VEGFR2 Detection Antibody Part#841435 in Total VEGFR2 kit) diluted in IC Diluent #14 (20 mM Tris, 137 mM CaCl2, 0.05% Tween20, 0.1% BSA) was added to wells and the plate incubated for 2 hours at room temperature. The plate was then washed three times in wash buffer and tapped dry. 100 μL of streptavidin-HPR diluted in IC diluent #14 Streptavidin-HRP, Part #890803 in Total VEGFR2 kit) was added to wells and incubated at room temperature for 20 minutes followed by washing as described above. 100 μL Substrate solution (3,3′,5,5′-Tetramethylbenzidine (TMB) Liquid Substrate System for ELISA, Cat # T0440, Sigma-Aldrich) was added and the plate incubated for 20 minutes in the dark at room temperature followed by the addition of 50 μL stop solution (2 M H2SO4).
Total VEGFR2 levels were quantified using a Multiskan Ascent plate reader and Ascent software fitted with 450 nm filter.
For detection of Phospho VEGFR2, 100 μL of Detection antibody (Anti-Phospho-Tyrosine-HRP Detection Antibody, Part #841403 in Phospho VEGFR2 kit) was diluted in IC Diluent 14 (20 mM Tris, 137 mM CaCl2, 0.05% Tween20, 0.1% BSA), was added to the wells and the plate incubated for 2 hours at room temperature. The plate was then washed three times in wash buffer as described above and tapped dry. 100 μL Substrate solution (3,3′,5,5′-Tetramethylbenzidine (TMB) Liquid Substrate System for ELISA, Cat # T0440, Sigma-Aldrich) was added and the plate incubated for 20 minutes in the dark at room temperature followed by the addition of 50 μL stop solution (2 M H2SO4).
Phospho VEGFR2 levels were quantified using a Multiscan ascent plate reader and ascent software fitted with 450 nm filter.
IC50 values are determined by first calculating the level of phospho VEGFR2 relative to Total VEGFR2 according to the following formula:

[3] = biological target: VEGFR3 cytoplasmic domain (Homo sapiens, UniProt P35916); experiment: VEGFR3 Biochemical Assay (AlphaScreen); settings: GST-fusion enzyme, 500 μM ATP, 90 minutes at 30 degree Celsius (modified form in some cases: Hexa-His-fusion enzyme, 1 μM ATP); read-out: IC50
Sequence of VEGFR3 cytoplasmic domain (P35916 798-1298 isoform P35916-1): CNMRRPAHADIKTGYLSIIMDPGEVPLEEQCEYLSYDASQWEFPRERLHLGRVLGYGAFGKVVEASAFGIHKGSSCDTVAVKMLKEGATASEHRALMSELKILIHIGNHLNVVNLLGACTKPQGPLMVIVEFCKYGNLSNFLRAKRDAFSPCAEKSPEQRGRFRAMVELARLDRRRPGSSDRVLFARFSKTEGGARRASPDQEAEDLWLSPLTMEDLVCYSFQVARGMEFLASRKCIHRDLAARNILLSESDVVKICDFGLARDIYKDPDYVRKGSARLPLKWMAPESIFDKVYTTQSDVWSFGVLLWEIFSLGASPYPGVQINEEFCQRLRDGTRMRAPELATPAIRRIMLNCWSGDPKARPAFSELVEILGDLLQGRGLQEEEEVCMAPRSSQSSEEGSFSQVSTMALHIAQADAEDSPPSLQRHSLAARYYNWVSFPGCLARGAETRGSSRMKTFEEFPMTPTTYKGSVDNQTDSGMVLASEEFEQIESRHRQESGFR

[4] = biological target: T2, FAK (Homo sapiens, UniProt Q05397); experiment: P397Y-FAK Inhibition MSD Platform Cellular Biomarker Assay; type: cell-based; settings: MDA-231-LNA cells, treated for 1 hour; pFAK-397 levels
T2 construct: endogenous in cells; host or cells: MDA-231-LNA
T2 sequence (Q05397 whole entry): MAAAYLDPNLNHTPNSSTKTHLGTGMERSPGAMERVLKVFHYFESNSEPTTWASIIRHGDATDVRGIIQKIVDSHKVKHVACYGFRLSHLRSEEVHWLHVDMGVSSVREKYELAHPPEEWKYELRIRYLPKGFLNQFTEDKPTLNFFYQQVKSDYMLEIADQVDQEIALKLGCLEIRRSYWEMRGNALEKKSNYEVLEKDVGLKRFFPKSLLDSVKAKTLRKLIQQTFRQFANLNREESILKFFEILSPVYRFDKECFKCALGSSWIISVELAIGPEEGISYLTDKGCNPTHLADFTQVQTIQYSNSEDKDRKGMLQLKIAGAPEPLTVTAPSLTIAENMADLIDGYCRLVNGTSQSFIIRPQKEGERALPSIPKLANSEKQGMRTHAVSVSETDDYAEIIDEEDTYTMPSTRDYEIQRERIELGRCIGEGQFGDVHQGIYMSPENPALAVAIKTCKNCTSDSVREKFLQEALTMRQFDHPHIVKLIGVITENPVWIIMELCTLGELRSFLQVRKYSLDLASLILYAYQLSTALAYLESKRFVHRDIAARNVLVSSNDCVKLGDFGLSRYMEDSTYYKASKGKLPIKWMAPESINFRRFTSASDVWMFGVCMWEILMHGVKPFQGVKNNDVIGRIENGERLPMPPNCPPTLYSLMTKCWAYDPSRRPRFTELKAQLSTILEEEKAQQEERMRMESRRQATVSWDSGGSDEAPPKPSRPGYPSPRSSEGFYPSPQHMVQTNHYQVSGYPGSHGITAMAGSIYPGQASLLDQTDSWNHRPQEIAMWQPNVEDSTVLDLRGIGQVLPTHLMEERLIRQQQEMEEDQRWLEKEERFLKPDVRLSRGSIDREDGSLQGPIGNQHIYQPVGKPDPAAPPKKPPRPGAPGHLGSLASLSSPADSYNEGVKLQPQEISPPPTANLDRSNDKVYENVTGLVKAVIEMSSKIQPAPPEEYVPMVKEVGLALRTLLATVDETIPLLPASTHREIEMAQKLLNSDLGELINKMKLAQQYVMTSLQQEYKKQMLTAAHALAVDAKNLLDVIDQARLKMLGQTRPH
Method: 96-well plates (cat#MA6000, Meso Scale Discovery) are coated with 30 μL/well of mouse monoclonal FAK antibody [63D5] (cat#ab72140, Abcam) pre-diluted in PBS to a concentration of 1 mg/mL. The plates are sealed with adhesive film and incubated for 16 hours at 4° C. The antibody is then flicked out of the plates and 150 μL of 3% [w/v] Blocker A (cat#R93AA-1, Meso Scale Discovery) is added. The plates are resealed with adhesive film and incubated at room temperature on a shaker set at medium speed for 2 hours. The plates are then washed three times with a solution containing 50 mM Tris-HCl pH 7.5, 0.15 M NaCl and 0.02% Tween-20, before cell lysate addition described below.
On the day prior to compound treatment, 200 μL media containing 20,000 cells is seeded into all wells of white, clear-bottom, TC treated, pclear, 96-well microtitre plates (cat#655098, Greiner Bio-One), and the plates are incubated at 37° C. and 5% CO2 for 36 hours. 1 μL/well of compound is then added from dilution series prepared in DMSO. Negative control wells receive the same volume of DMSO without compounds, and positive control wells receive 2 μM of a control compound in the same volume of DMSO. Cells are treated for 1 hour at 37° C. and 5% CO2. The media/compounds are then flicked off and 55 μL/well of ice-cold complete lysis buffer is added. […] Plates are incubated on ice for 30 minutes, with 30 seconds high speed plate shaking every 5 minutes. 40 μL/well of cell lysate is transferred to the coated, blocked and washed 96-well microtitre plates described above. The 96-well plates are sealed with adhesive film and incubated for 16 hours at 4° C. The plates are then washed three times with a solution containing 50 mM Tris-HCl pH 7.5, 0.15 M NaCl and 0.02% Tween-20 and tapped dry. […] Plates are then washed three times with a solution containing 50 mM Tris-HCl pH 7.5, 0.15 M NaCl and 0.02% Tween-20 and tapped dry. 150 μL/well of Read Buffer T+Surfactant (cat#R92TC-1, Meso Scale Discovery) is then added, and pFAK-397 levels quantified using a Meso Scale Discovery SECTOR Imager 6000 instrument.

Sequence of VEGFR3 (P35916 25-1363): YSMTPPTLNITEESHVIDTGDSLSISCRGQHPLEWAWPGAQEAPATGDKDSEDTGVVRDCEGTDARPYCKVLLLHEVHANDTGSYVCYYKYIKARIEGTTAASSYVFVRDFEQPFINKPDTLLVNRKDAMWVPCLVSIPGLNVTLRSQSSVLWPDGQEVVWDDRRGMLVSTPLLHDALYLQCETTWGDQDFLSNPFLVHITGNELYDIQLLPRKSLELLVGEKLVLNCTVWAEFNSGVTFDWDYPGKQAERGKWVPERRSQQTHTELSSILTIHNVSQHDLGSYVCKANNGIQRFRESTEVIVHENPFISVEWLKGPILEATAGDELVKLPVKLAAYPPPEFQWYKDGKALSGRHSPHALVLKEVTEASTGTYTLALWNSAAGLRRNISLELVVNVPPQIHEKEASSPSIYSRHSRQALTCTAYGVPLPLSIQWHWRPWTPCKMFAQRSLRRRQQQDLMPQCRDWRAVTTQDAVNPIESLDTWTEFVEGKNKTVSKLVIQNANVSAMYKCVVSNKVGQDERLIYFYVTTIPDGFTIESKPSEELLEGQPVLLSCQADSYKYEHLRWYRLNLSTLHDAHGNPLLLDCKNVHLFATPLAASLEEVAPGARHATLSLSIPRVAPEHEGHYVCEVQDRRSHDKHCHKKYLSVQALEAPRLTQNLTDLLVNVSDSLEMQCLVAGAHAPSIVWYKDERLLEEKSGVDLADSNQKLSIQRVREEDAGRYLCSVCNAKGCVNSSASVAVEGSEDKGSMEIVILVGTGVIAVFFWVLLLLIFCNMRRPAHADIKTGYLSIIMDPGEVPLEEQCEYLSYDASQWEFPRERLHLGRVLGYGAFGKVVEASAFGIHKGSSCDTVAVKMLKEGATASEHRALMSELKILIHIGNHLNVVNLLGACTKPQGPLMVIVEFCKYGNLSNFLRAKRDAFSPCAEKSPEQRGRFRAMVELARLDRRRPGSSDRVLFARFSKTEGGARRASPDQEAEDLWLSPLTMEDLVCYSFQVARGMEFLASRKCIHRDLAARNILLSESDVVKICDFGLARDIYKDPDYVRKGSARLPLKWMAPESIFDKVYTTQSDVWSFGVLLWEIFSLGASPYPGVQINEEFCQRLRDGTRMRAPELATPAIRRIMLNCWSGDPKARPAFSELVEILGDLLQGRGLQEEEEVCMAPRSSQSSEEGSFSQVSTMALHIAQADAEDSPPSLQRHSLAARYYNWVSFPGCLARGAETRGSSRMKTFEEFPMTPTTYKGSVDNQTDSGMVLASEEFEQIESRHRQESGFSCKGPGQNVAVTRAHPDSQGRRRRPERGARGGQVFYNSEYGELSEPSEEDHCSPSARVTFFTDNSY

| SMILES | IC50 [1] | IC50 [2] | IC50 [3] | IC50 [4] |
| --- | --- | --- | --- | --- |
| CN1CCC(c2ccc(Nc3ncc(Cl)c(CCc4ccccc4C4(C(N)=O)CC4)n3)cc2)CC1 [Compound 8, 1-(2-(2-(5-chloro-2-((4-(1-methylpiperidin-4-yl)phenyl)amino)pyrimidin-4-yl)ethyl)phenyl)cyclopropanecarboxamide] | 19 nM | 897 nM | 10 nM | – |
| CN1CCC(c2ccc(Nc3ncc(C(F)(F)F)c(CCc4ccccc4C4(C(N)=O)CC4)n3)cc2)CC1 [Compound 3, 1-(2-(2-(2-((4-(1-methylpiperidin-4-yl)phenyl)amino)-5-(trifluoromethyl)pyrimidin-4-yl)ethyl)phenyl)cyclopropanecarboxamide] | 27 nM | 1790 nM | 9 nM | – |
| NC(=O)C1(c2ccccc2CCc2nc(Nc3cnn(C4CCNCC4)c3)ncc2Cl)CC1 [Compound 17, 1-(2-(2-(5-Chloro-2-((1-(piperidin-4-yl)-1H-pyrazol-4-yl)amino)pyrimidin-4-yl)ethyl)phenyl)cyclopropanecarboxamide] | 62 nM | 393 nM | 9 nM | – |
| NC(=O)C1(c2ccccc2CCc2nc(Nc3ccc(C(F)(F)F)nc3)ncc2Cl)CC1 [Compound 9, 1-(2-(2-(5-chloro-2-((6-(trifluoromethyl)pyridin-3-yl)amino)pyrimidin-4-yl)ethyl)phenyl)cyclopropanecarboxamide] | 75 nM | […] | 26 nM | – |
| CC(N)c1ccc(Nc2ncc(Cl)c(CCc3ccccc3C3(C(N)=O)CC3)n2)cc1 (stereo not drawn) [Compound 24A, 1-(2-(2-(2-((4-(1-Aminoethyl)phenyl)amino)-5-chloropyrimidin-4-yl)ethyl)phenyl)cyclopropanecarboxamide] | – | 209 nM | 14 nM | – |
| CN1CCC(n2cc(Nc3ncc(Cl)c(CCc4ccccc4C4(C(N)=O)CC4)n3)cn2)C1 (stereo not drawn) [Compound 21, 1-(2-(2-(5-Chloro-2-(1-(1-methylpyrrolidin-3-yl)-1H-pyrazol-4-ylamino)pyrimidin-4-yl)ethyl)phenyl)cyclopropanecarboxamide] | 14 nM | 73 nM | 7 nM | – |
| CN1CCC(n2cc(Nc3ncc(Cl)c(CCc4ccccc4C4(C(N)=O)CC4)n3)cn2)CC1 [Compound 18, 1-(2-(2-(5-chloro-2-((1-(1-methylpiperidin-4-yl)-1H-pyrazol-4-yl)amino)pyrimidin-4-yl)ethyl)phenyl)cyclopropanecarboxamide] | 5 nM | 21 nM | 3 nM | – |
| Cn1cc(Nc2ncc(Cl)c(CCc3ccccc3C(C)(C)C(N)=O)n2)cn1 [Compound 45, 2-(2-(2-(5-Chloro-2-((1-methyl-1H-pyrazol-4-yl)amino)pyrimidin-4-yl)ethyl)phenyl)-2-methylpropanamide] | 23 nM | 370 nM | 3 nM | – |
| NC(=O)C1(c2ccccc2CCc2nc(Nc3cn[nH]c3)ncc2Cl)CC1 [Compound 19, 1-(2-(2-(2-(1H-Pyrazol-4-ylamino)-5-chloropyrimidin-4-yl)ethyl)phenyl)cyclopropanecarboxamide] | 11 nM | 248 nM | 3 nM | – |
| CC(C(N)=O)c1ccccc1CCc1nc(Nc2cn[nH]c2)ncc1Cl (stereo not drawn) [Compound 35, 2-(2-(2-(2-(1H-Pyrazol-4-ylamino)-5-chloropyrimidin-4-yl)ethyl)phenyl)propanamide] | 64 nM | 3790 nM | 9 nM | – |
| NC(=O)C1(c2ccccc2CCc2nc(Nc3cccnc3)ncc2Cl)CC1 [Compound 6, 1-(2-(2-(5-chloro-2-(pyridin-3-ylamino)pyrimidin-4-yl)ethyl)phenyl)cyclopropanecarboxamide] | 17 nM | 6610 nM | 8 nM | – |
| NC(=O)C1(c2ccccc2CCc2nc(Nc3cnn(C4CCNC4)c3)ncc2Cl)CC1 (stereo not drawn) [Compound 20, 1-(2-(2-(5-Chloro-2-(1-(pyrrolidin-3-yl)-1H-pyrazol-4-ylamino)pyrimidin-4-yl)ethyl)phenyl)cyclopropanecarboxamide] | 38 nM | 1760 nM | 7 nM | – |
| CC(C(N)=O)c1ccccc1CCc1nc(Nc2cnn(C3CCNCC3)c2)ncc1C(F)(F)F (racemic) [Compound 56, 2-(2-(2-(2-((1-(piperidin-4-yl)-1H-pyrazol-4-yl)amino)-5-(trifluoromethyl)pyrimidin-4-yl)ethyl)phenyl)propanamide] | – | – | – | 517 nM |
| NC(=O)C1(c2ccccc2CCc2nc(Nc3ccc(C4CCNCC4)cc3)ncc2C(F)(F)F)CC1 [Compound 2, 1-(2-(2-(2-((4-(Piperidin-4-yl)phenyl)amino)-5-(trifluoromethyl)pyrimidin-4-yl)ethyl)phenyl)cyclopropanecarboxamide] | 26 nM | 283 nM | 10 nM | – |
| NC(=O)C1(c2ccccc2CCc2nc(Nc3cnn(C4CNC4)c3)ncc2Cl)CC1 [Compound 14, 1-(2-(2-(2-((1-(Azetidin-3-yl)-1H-pyrazol-4-yl)amino)-5-chloropyrimidin-4-yl)ethyl)phenyl)cyclopropanecarboxamide] | 30 nM | 357 nM | 6 nM | – |
| CC(C(N)=O)c1ccccc1CCc1nc(Nc2cnn(C3CCN(C)CC3)c2)ncc1C(F)(F)F (single isomer, unassigned) [Compound 57-1A, 2-(2-(2-(2-((1-(1-Methylpiperidin-4-yl)-1H-pyrazol-4-yl)amino)-5-(trifluoromethyl)pyrimidin-4-yl)ethyl)phenyl)propanamide] | – | 518 nM | – | – |
| CC(C(N)=O)c1ccccc1CCc1nc(Nc2cnn(C3CCN(C)CC3)c2)ncc1Cl (stereo not drawn) [Compound 44, 2-(2-(2-(5-Chloro-2-(1-(1-methylpiperidin-4-yl)-1H-pyrazol-4-ylamino)pyrimidin-4-yl)ethyl)phenyl)propanamide] | 52 nM | 138 nM | 9 nM | – |
| CC(C(N)=O)c1ccccc1CCc1nc(Nc2cnn(C)c2)ncc1C(F)(F)F (stereo not drawn) [Compound 55, 2-(2-(2-(2-((1-Methyl-1H-pyrazol-4-yl)amino)-5-(trifluoromethyl)pyrimidin-4-yl)ethyl)phenyl) propanamide] | – | – | 15 nM | 115 nM |
| NC(=O)C1(c2ccccc2CCc2nc(Nc3ccc(C4CCNCC4)nc3)ncc2Cl)CC1 [Compound 15, 1-(2-(2-(5-Chloro-2-((6-(piperidin-4-yl)pyridin-3-yl)amino)pyrimidin-4-yl)ethyl)phenyl)cyclopropanecarboxamide] | 51 nM | 2000 nM | 11 nM | – |
| CCC(C(N)=O)c1ccccc1CCc1nc(Nc2ccc(C3CCNCC3)cc2)ncc1C(F)(F)F (racemic) [Compound 1, 2-(2-(2-(2-((4-(Piperidin-4-yl)phenyl)amino)-5-(trifluoromethyl)pyrimidin-4-yl)ethyl)phenyl)butanamide] | – | – | – | 1180 nM |
| NC(=O)C1(c2ccccc2CCc2nc(Nc3ccc(C4CCNCC4)nc3)ncc2C(F)(F)F)CC1 [Compound 5, 1-(2-(2-(2-((6-(Piperidin-4-yl)pyridin-3-yl)amino)-5-(trifluoromethyl)pyrimidin-4-yl)ethyl)phenyl)cyclopropanecarboxamide] | 51 nM | 4080 nM | 28 nM | – |
| NC(=O)C1(c2ccccc2CCc2nc(Nc3ccc(C4CCNCC4)nc3)ncc2C(F)(F)F)CC1 [Compound 68, 1-(2-(2-(2-((6-(Piperidin-4-yl)pyridin-3-yl)amino)-5-(trifluoromethyl)pyrimidin-4-yl)ethyl)phenyl)cyclopropanecarboxamide] | 51 nM | 4080 nM | 28 nM | – |
| CC(C(N)=O)c1ccccc1CCc1nc(Nc2cnn(C)c2)ncc1Cl (stereo not drawn) [Compound 36, 2-(2-(2-(5-Chloro-2-(1-methyl-1H-pyrazol-4-ylamino)pyrimidin-4-yl)ethyl)phenyl) propanamide] | 76 nM | 8170 nM | 16 nM | – |
| NC(=O)C1(c2ccccc2CCc2nc(Nc3ccc(C4CNC4)cc3)ncc2C(F)(F)F)CC1 [Compound 4, 1-(2-(2-(2-((4-(azetidin-3-yl)phenyl)amino)-5-(trifluoromethyl)pyrimidin-4-yl)ethyl)phenyl)cyclopropanecarboxamide] | – | 2040 nM | – | > 2000 nM |
